From ChEMBL document CHEMBL2401728, “An unexpected Dimroth rearrangement leading to annelated thieno[3,2-d][1,2,3]triazolo[1,5-a]pyrimidines with potent antitumor activity” (Eur J Med Chem, 2013)

Experiments:
Assay type in all cases: functional
[1] = tested on: IGROV-1; experiment: Cytotoxicity against human IGROV1 cells assessed as cellular growth at 0.01 uM after 48 hrs by SRB assay relative to control
[2] = tested on: Malme-3M; experiment: Cytotoxicity against human MALME-3M cells assessed as cellular growth at 0.01 uM after 48 hrs by SRB assay relative to control
[3] = tested on: HCT-116; experiment: Cytotoxicity against human HCT116 cells assessed as cellular growth at 0.01 uM after 48 hrs by SRB assay relative to control
[4] = tested on: NCI-H23; experiment: Cytotoxicity against human NCI-H23 cells assessed as cellular growth at 0.01 uM after 48 hrs by SRB assay relative to control
[5] = tested on: MDA-MB-231; experiment: Cytotoxicity against human MDA-MB-231 cells assessed as cellular growth at 100 uM after 48 hrs by SRB assay relative to control
[6] = tested on: SNB-19; experiment: Cytotoxicity against human SNB19 cells assessed as cellular growth at 100 uM after 48 hrs by SRB assay relative to control
[7] = tested on: KM12; experiment: Cytotoxicity against human KM12 cells assessed as cellular growth at 100 uM after 48 hrs by SRB assay relative to control
[8] = tested on: A498; experiment: Cytotoxicity against human A498 cells assessed as cellular growth at 10 uM after 48 hrs by SRB assay relative to control
[9] = tested on: SW-620; experiment: Cytotoxicity against human SW620 cells assessed as cellular growth at 10 uM after 48 hrs by SRB assay relative to control
[10] = tested on: MDA-MB-468; experiment: Cytotoxicity against human MDA-MB-468 cells assessed as cellular growth at 100 uM after 48 hrs by SRB assay relative to control
[11] = tested on: MDA-MB-231; experiment: Cytotoxicity against human MDA-MB-231 cells assessed as cellular growth at 1 uM after 48 hrs by SRB assay relative to control
[12] = tested on: OVCAR-5; experiment: Cytotoxicity against human OVCAR5 cells assessed as cellular growth at 1 uM after 48 hrs by SRB assay relative to control
[13] = tested on: SK-MEL-5; experiment: Cytotoxicity against human SK-MEL-5 cells assessed as cellular growth at 1 uM after 48 hrs by SRB assay relative to control
[14] = tested on: LOX IMVI; experiment: Cytotoxicity against human LOXIMVI cells assessed as cellular growth at 1 uM after 48 hrs by SRB assay relative to control
[15] = tested on: NCI-H460; experiment: Cytotoxicity against human NCI-H460 cells assessed as cellular growth at 1 uM after 48 hrs by SRB assay relative to control
[16] = tested on: NCI-H322M; experiment: Cytotoxicity against human NCI-H322M cells assessed as cellular growth at 1 uM after 48 hrs by SRB assay relative to control
[17] = tested on: HOP-62; experiment: Cytotoxicity against human HOP62 cells assessed as cellular growth at 1 uM after 48 hrs by SRB assay relative to control
[18] = tested on: T47D; experiment: Cytotoxicity against human T47D cells assessed as cellular growth at 0.1 uM after 48 hrs by SRB assay relative to control
[19] = tested on: T47D; experiment: Cytotoxicity against human T47D cells after 48 hrs by SRB assay
[20] = tested on: MDA-MB-231; experiment: Cytotoxicity against human MDA-MB-231 cells after 48 hrs by SRB assay; details: MDA-MB-231, 48 h
[21] = tested on: SN12C; experiment: Cytotoxicity against human SN12C cells after 48 hrs by SRB assay
[22] = tested on: OVCAR-5; experiment: Cytotoxicity against human OVCAR5 cells after 48 hrs by SRB assay; details: OVCAR-5, 48 h
[23] = tested on: OVCAR-4; experiment: Cytotoxicity against human OVCAR4 cells after 48 hrs by SRB assay; details: OVCAR-4, 48 h
[24] = tested on: IGROV-1; experiment: Cytotoxicity against human IGROV1 cells after 48 hrs by SRB assay; details: IGROV-1, 48 h
[25] = tested on: UACC-257; experiment: Cytotoxicity against human UACC257 cells after 48 hrs by SRB assay; details: UACC-257, 48 h
[26] = tested on: NCI-H322M; experiment: Cytotoxicity against human NCI-H322M cells after 48 hrs by SRB assay
[27] = tested on: HL-60(TB); experiment: Cytotoxicity against human HL-60(TB) cells after 48 hrs by SRB assay; details: HL-60, 48 h
[28] = tested on: OVCAR-4; experiment: Cytotoxicity against human OVCAR4 cells assessed as cellular growth at 0.1 uM after 48 hrs by SRB assay relative to control
[29] = tested on: MDA-MB-435; experiment: Cytotoxicity against human MDA-MB-435 cells assessed as cellular growth at 0.1 uM after 48 hrs by SRB assay relative to control
[30] = tested on: SNB-75; experiment: Cytotoxicity against human SNB75 cells assessed as cellular growth at 0.1 uM after 48 hrs by SRB assay relative to control
[31] = tested on: COLO 205; experiment: Cytotoxicity against human COLO205 cells assessed as cellular growth at 0.1 uM after 48 hrs by SRB assay relative to control
[32] = tested on: NCI-H226; experiment: Cytotoxicity against human NCI-H226 cells assessed as cellular growth at 0.1 uM after 48 hrs by SRB assay relative to control
[33] = tested on: Hs-578T; experiment: Cytotoxicity against human Hs578T cells assessed as cellular growth at 0.01 uM after 48 hrs by SRB assay relative to control
[34] = tested on: DU-145; experiment: Cytotoxicity against human DU145 cells assessed as cellular growth at 0.01 uM after 48 hrs by SRB assay relative to control
[35] = read-out: LC50 (the source's name)
[36] = read-out: pLC50 (the source's name) (converted)

O=C(CCCn1c2c(sc3ccccc32)c(=O)n2nnc(-c3ccccc3)c12)NCCc1c[nH]cn1
Activity [1]: 101%
Activity [2]: 100%
Activity [3]: 16%
Activity [4]: 92%
Activity [5]: -100%
Activity [6]: -84%
Activity [7]: -100%
Activity [8]: -85%
Activity [9]: -84.52%
Activity [10]: -100%
Activity [11]: 101%
Activity [12]: 14%
Activity [13]: 70%
Activity [14]: 82%
Activity [15]: 75%
Activity [16]: 90%
Activity [17]: 67%
Activity [18]: 55%
GI50 ([19]; read-out: GI50): 1.27 µM
CC50 [19, 35]: 30.6 µM
TGI ([19]; read-out: TGI): 6.37 µM
GI50 ([19]; read-out: pGI50 (converted)): 1.26 µM
CC50 [19, 36]: 30.9 µM
TGI ([19]; read-out: pTGI (converted)): 6.31 µM
GI50 ([20]; read-out: GI50): 1.88 µM
LC50 ([20]; read-out: LC50): 6.54 µM
TGI ([20]; read-out: TGI): 3.51 µM
GI50 ([20]; read-out: pGI50 (converted)): 1.86 µM
LC50 ([20]; read-out: pLC50 (converted)): 6.61 µM
TGI ([20]; read-out: pTGI (converted)): 3.47 µM
GI50 ([21]; read-out: GI50): 0.011 µM
CC50 [21, 35]: 5.51 µM
TGI ([21]; read-out: TGI): 2.03 µM
GI50 ([21]; read-out: pGI50 (converted)): 0.011 µM
CC50 [21, 36]: 5.5 µM
TGI ([21]; read-out: pTGI (converted)): 2.04 µM
GI50 ([22]; read-out: GI50): 0.0565 µM
CC50 [22, 35]: 4.06 µM
TGI ([22]; read-out: TGI): 1.36 µM
GI50 ([22]; read-out: pGI50 (converted)): 0.0562 µM
CC50 [22, 36]: 4.07 µM
TGI ([22]; read-out: pTGI (converted)): 1.35 µM
GI50 ([23]; read-out: GI50): 1.83 µM
CC50 [23, 35]: 8.02 µM
TGI ([23]; read-out: TGI): 3.83 µM
GI50 ([23]; read-out: pGI50 (converted)): 1.82 µM
CC50 [23, 36]: 7.94 µM
TGI ([23]; read-out: pTGI (converted)): 3.8 µM
GI50 ([24]; read-out: GI50): 0.0997 µM
CC50 [24, 35]: 5.04 µM
TGI ([24]; read-out: TGI): 2.07 µM
GI50 ([24]; read-out: pGI50 (converted)): 0.1 µM
CC50 [24, 36]: 5.01 µM
TGI ([24]; read-out: pTGI (converted)): 2.09 µM
GI50 ([25]; read-out: GI50): 2.14 µM
CC50 [25, 35]: 7.83 µM
TGI ([25]; read-out: TGI): 4.09 µM
GI50 ([25]; read-out: pGI50 (converted)): 2.14 µM
CC50 [25, 36]: 7.76 µM
TGI ([25]; read-out: pTGI (converted)): 4.07 µM
GI50 ([26]; read-out: GI50): 2.75 µM
CC50 [26, 35]: 39.2 µM
TGI ([26]; read-out: TGI): 9.8 µM
GI50 ([26]; read-out: pGI50 (converted)): 2.75 µM
CC50 [26, 36]: 38.9 µM
TGI ([26]; read-out: pTGI (converted)): 9.77 µM
GI50 ([27]; read-out: GI50): 0.0724 µM
CC50 [27, 35]: 22.7 µM
TGI ([27]; read-out: TGI): 3.21 µM
GI50 ([27]; read-out: pGI50 (converted)): 0.0724 µM
CC50 [27, 36]: 22.9 µM
TGI ([27]; read-out: pTGI (converted)): 3.24 µM
Activity [28]: 100%
Activity [29]: 69%
Activity [30]: 115%
Activity [31]: 60%
Activity [32]: 95%
Activity [33]: 109%
Activity [34]: 105%
